Measurements published in ChEMBL document CHEMBL1201862, “PubChem BioAssay data set” (2004).
Active and inactive are the calls of the source.

Key:
[1] = Trypanosoma cruzi growth suppression in host cells – NIH3T3 host cells, beta-gal luminescence, confirmation (AID 2044); type: functional, cell-based;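 further: intracellular parasites grown in NIH/3T3 mouse fibroblasts as host cells; luminescent beta-galactosidase reporter signal from transgenic T. cruzi replicating inside host cells; inhibitors lower the luminescence signal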
cells [2] = type: functional, cell-based
BJ [3] = assay: cells; type: functional, cell-based; conditions: Homo sapiens
[4] = luciferase reporter signal suppression in cells – H4 neuroglioma cells, luminescence, dose response (AID 1990); type: functional, cell-based
[5] = Luminescence Cell-Based Dose Response HTS to Identify Inhibitors of 5'UTR Stem-Loop Driven Prion Protein mRNA Translation in H4 Neuroglioblastoma Cells. [Related pubchem assays: 1827 (Project Summary), 1813 (Primary HTS)]; type: functional
[6] = fluconazole-exposed Candida albicans growth modulators – fluorescence, retest, confirmation (AID 2467); type: functional, cell-based
BJ [7] = assay: BJ-TERT fibroblast viability loss – cell-based, RAS-independent, luminescence, dose response (AID 1933); type: functional; conditions: Homo sapiens
[8] = HGIII-sPLA2 enzyme inhibition potency – biochemical, QFRET, IC50, dose response (AID 743457);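 further: green fluorescence rise as the enzyme cleaves BODIPY PC-A2 in liposomes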
[9] = tested on: Streptococcus sp. 'group A'; assay: Streptococcus pyogenes SK(-)GAS viability under kanamycin – luminescence, BacTiterGlo, confirmation, counter-screen for streptokinase expression inhibitor project, dose response (AID 1900); type: functional, organism-based
cells [10] = type: functional, cell-based; remark: listed apart in the source
Aminopeptidase N = molecular target: T1, Aminopeptidase N (Plasmodium falciparum FcB1/Columbia, UniProt O96935); assay: malaria alanyl aminopeptidase activity blockers – biochemical, fluorogenic H-Leu-NHMec substrate, 1536-well (AID 1445); design: species or system Plasmodium falciparum 3D7, 3D7
T1 sequence (O96935 whole entry): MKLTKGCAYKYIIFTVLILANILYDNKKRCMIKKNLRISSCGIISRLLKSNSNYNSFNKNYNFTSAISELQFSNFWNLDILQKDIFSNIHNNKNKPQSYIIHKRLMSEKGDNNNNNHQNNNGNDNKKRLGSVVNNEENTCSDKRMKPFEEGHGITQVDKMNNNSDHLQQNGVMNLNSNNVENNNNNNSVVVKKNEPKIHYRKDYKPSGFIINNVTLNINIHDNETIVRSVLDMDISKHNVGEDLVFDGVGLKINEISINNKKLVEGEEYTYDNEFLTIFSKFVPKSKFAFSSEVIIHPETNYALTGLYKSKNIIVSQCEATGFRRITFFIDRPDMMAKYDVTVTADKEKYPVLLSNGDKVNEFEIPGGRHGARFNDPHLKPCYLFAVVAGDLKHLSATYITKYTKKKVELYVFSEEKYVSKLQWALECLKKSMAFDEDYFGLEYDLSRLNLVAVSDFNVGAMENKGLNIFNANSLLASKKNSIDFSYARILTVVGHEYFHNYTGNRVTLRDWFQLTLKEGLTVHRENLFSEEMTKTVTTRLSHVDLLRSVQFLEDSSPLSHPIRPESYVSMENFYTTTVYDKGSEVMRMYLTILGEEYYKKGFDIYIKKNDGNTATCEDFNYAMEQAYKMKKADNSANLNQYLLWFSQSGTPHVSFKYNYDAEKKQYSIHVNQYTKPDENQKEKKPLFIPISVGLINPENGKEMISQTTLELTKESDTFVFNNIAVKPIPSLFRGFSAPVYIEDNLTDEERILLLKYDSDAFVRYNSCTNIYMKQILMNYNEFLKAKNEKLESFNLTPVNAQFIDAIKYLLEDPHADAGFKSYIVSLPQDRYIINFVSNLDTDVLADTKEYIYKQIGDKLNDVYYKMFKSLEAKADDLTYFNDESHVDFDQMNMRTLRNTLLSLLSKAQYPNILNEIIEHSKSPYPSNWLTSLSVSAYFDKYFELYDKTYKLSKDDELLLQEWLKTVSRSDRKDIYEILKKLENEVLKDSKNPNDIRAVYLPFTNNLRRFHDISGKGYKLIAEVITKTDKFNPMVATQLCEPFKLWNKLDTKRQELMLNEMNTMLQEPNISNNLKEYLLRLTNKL

[11] = DRD fibroblast viability loss – cell-based, non-viral oncogenic, luminescence, dose response (AID 1934); type: functional; conditions: Homo sapiens
BJ [12] = assay: BJ-TERT-LT-ST fibroblast viability loss – cell-based, RAS-independent, luminescence, dose response (AID 1935); type: functional; conditions: Homo sapiens;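 further: BJ fibroblasts immortalized with TERT plus LT and ST oncogenes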
[13] = NIH-3T3 fibroblast cytotoxicity, dose response, cytotoxicity control, cell-based, fluorescence, Alamar Blue, secondary assay (AID 2327); type: functional;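 further: NIH-3T3 mouse fibroblasts cultured with fluconazole at 8 µg/mL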
[14] = molecular target: T2, Calpain-2 catalytic subunit (Sus scrofa, UniProt P43367); assay: m-calpain protease blockers, concentration series – biochemical, fluorogenic peptide substrate, dose response (AID 1420); type: functional
T2 sequence (P43367 whole entry): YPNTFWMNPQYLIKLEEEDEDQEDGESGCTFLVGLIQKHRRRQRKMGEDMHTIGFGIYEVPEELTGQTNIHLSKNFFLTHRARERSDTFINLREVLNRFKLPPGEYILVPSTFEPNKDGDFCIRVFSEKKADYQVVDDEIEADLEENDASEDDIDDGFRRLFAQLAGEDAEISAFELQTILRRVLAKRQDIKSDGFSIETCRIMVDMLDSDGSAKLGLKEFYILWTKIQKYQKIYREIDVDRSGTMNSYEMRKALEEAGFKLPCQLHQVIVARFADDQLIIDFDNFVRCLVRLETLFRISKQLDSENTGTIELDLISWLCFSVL

[15] = alpha-synuclein stem-loop luciferase translation blockers – H4 neuroglioma cells, luminescence, confirmation (AID 1988); type: functional, cell-based
[16] = NIH3T3 cell viability loss – ATP luminescence, mouse fibroblasts, counter-screen, dose response (AID 2010); type: functional, cell-based;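 further: cells exposed to compound for about 90 hours before reading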
Streptococcus = assay: GAS UMAA2166 growth inhibition – luminescence, BacTiterGlo, counter-screen for streptokinase expression inhibitor project, dose response (AID 1915); type: functional, organism-based;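 further: potency for reduction of bacterial viability or growth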
[17] = molecular target: T3, Scavenger receptor class B member 1 (Mus musculus, UniProt Q61009); assay: mouse SR-BI DiI-HDL uptake blockers – ldlA[mSR-BI] cells, fluorescence, cherry pick, dose response (AID 493194); type: functional, cell-based;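 further: cellular uptake of fluorescent DiI-labeled HDL measured as cell fluorescence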
T3 sequence (Q61009 whole entry): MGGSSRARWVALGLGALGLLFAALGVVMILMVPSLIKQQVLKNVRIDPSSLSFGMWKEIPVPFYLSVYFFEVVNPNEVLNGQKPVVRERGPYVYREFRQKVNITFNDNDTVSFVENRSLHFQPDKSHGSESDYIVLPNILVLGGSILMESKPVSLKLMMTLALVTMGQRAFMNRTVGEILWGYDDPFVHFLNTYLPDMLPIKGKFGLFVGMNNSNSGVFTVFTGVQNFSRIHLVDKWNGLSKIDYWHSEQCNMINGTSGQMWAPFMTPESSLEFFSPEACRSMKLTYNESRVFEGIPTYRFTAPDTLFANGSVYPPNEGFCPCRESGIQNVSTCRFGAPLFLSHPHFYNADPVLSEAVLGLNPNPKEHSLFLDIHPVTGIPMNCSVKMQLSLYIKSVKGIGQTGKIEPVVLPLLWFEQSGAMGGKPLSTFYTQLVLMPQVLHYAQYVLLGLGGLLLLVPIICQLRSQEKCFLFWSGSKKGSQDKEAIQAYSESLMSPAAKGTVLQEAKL

[18] = molecular target: Broad substrate specificity ATP-binding cassette transporter ABCG2 (Homo sapiens, UniProt Q9UNQ0); assay: blockers of JC-1 export by ABCG2 – Ig-MXP3 cells, flow cytometry, dose response (AID 1690); type: functional
[19] = molecular target: Long-chain-fatty-acid--AMP ligase FadD28 (Mycobacterium tuberculosis, UniProt P9WQ59); assay: Fluorescence polarization aasay to screen for inhibitors that compete for the binding of FadD28 to a bisubstrate Measured in Biochemical System Using Plate Reader - 2147-01_Inhibitor_Dose_CherryPick_Activity.; type: functional, Mycobacterium tuberculosis H37Rv
[20] = molecular target: Matrix metalloproteinase-14 (Homo sapiens, UniProt P50281); assay: Dose Response confirmation of uHTS hits for a small molecule inhibitors of MT1-MMP activation in a fluorescence assay set 1.; type: functional
[21] = microbe, parasite or virus in culture; type: functional; conditions: Mycobacterium tuberculosis
[22] = molecular target: T4, RNA-binding protein pos-1 (Caenorhabditis elegans, UniProt G5EF15); assay: disruptors of C. elegans POS-1 RNA interaction – biochemical, fluorescence polarization, dose response (AID 1964);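 further: purified POS-1 fused to maltose binding protein made in E. coli; potency of compounds blocking POS-1 binding to fluorescent RNA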
T4 sequence (G5EF15 whole entry): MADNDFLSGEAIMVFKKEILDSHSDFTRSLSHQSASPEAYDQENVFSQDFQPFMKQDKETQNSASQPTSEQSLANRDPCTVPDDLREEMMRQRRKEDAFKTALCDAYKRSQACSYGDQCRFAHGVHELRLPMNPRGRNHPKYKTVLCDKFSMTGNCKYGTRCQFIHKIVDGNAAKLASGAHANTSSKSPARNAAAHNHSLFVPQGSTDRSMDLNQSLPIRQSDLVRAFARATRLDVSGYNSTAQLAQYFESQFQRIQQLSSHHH

Beta-lactamase [23] = molecular target: Beta-lactamase (Salmonella choleraesuis (strain SC-B67), UniProt Q5J463)
[24] = molecular target: T5, Zinc finger protein mex-5 (Caenorhabditis elegans, UniProt Q9XUB2); assay: potency of MEX-5 RNA-binding blockers – biochemical, C. elegans, fluorescence polarization, dose response (AID 1960)
T5 sequence (Q9XUB2 whole entry): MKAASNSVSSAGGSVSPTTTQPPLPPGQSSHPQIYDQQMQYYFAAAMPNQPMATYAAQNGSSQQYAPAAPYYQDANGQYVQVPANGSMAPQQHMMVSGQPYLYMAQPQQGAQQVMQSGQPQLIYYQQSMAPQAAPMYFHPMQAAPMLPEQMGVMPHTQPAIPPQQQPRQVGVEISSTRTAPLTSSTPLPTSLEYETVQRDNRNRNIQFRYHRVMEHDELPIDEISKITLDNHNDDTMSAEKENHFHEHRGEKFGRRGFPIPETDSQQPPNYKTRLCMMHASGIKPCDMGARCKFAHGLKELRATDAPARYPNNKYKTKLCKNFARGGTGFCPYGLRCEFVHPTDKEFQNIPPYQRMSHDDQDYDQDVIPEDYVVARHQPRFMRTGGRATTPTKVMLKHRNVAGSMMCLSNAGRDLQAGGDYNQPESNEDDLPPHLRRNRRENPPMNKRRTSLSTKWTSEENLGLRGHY

Beta-lactamase [25] = molecular target: Beta-lactamase (Pseudomonas aeruginosa, UniProt Q79MP6);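 further: biochemical dose-response test of metallo-beta-lactamase enzyme inhibition, read out by epi-absorbance; purified recombinant IMP-1 metallo-beta-lactamase with nitrocefin as substrate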
Mu-type opioid receptor = Mu-type opioid receptor (Homo sapiens, UniProt P35372); type: functional, cell-based;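 further: U2OS cells with beta-arrestin recruitment to OPRM1 by beta-gal complementation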
[26] = molecular target: 5-hydroxytryptamine receptor 2A (Mus musculus, UniProt P35363); type: functional, cell-based;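 further: CHO-K1 cells with tagged receptor and beta-arrestin; agonist potency measured as compound-induced activation of the receptor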
cells [27] = type: functional, cell-based; remark: listed apart in the source
[28] = molecular target: Nuclear receptor subfamily 0 group B member 1 (Homo sapiens, UniProt P51843); type: functional, cell-based;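 further: HEK293T cells transfected with SF-1 and DAX-1 plus StAR promoter luciferase reporter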
HEK293 = assay: viability loss in HEK293T cells – cell-based, ATP luminescence, cherry-pick samples, cytotoxicity control, dose response (AID 687005); type: functional; conditions: Homo sapiens;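 further: cells exposed to compound for 48 hours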
[29] = HEK293 Cytotoxicity Assay Measured in Cell-Based System Using Plate Reader - 7071-01_Inhibitor_Dose_CherryPick_Activity_Set2.; type: functional
HeLa = assay: viability loss in HeLa cells – cell-based, ATP luminescence, cherry-pick samples, cytotoxicity control, dose response (AID 687004); type: functional; conditions: Homo sapiens
[30] = molecular target: T3, Scavenger receptor class B member 1; assay: blockers of DiI-HDL lipid transfer via SR-BI – cell-based, ldlA[mSR-BI] CHO, DiI fluorescence, dry powder, set 10, dose response (AID 624029); type: functional
[31] = T. cruzi growth inhibition in host cells, dose response, cell-based, plate reader, dry powder, set 2 (AID 652275); type: functional
[32] = Late stage assay provider results from the probe development effort to identify inhibitors of the Plasmodium falciparum M17 Leucine Aminopeptidase (M17LAP): radiolabel-based cell-based dose response assay to identify compounds that inhibit P. falciparum growth in RBCs Set 2.; type: functional

Sequence of Mu-type opioid receptor (P35372 whole entry): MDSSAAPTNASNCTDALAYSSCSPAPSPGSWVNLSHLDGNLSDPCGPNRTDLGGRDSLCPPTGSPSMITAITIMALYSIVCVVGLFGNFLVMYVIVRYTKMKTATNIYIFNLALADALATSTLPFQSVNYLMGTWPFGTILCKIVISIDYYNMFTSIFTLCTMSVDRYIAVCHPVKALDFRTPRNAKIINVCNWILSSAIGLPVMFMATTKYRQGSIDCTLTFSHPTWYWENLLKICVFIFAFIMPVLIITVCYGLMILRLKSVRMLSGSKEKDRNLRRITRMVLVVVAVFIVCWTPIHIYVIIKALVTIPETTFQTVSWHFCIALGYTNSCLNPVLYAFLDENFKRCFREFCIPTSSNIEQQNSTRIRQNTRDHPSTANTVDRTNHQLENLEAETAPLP
Sequence of Beta-lactamase (Pseudomonas aeruginosa, UniProt Q79MP6) (Q79MP6 whole entry): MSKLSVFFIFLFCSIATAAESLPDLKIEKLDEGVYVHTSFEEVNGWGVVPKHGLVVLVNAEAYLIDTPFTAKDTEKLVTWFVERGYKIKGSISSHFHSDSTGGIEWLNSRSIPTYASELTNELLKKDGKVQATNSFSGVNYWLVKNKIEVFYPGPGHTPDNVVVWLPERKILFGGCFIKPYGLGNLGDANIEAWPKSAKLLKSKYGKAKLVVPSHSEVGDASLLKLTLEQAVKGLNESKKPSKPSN
Sequence of 5-hydroxytryptamine receptor 2A (P35363 whole entry): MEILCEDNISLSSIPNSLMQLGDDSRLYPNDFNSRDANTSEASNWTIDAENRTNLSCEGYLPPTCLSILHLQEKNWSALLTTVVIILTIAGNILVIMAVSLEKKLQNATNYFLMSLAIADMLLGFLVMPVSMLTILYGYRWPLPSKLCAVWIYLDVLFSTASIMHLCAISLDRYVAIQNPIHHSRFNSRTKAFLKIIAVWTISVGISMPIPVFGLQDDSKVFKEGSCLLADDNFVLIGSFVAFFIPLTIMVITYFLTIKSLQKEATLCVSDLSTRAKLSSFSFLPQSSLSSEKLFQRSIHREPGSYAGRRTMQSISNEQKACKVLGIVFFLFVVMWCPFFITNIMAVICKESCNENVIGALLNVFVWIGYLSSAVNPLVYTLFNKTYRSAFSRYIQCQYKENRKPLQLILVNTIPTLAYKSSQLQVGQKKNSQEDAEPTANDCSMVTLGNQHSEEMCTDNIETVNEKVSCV
Sequence of Nuclear receptor subfamily 0 group B member 1 (P51843 whole entry): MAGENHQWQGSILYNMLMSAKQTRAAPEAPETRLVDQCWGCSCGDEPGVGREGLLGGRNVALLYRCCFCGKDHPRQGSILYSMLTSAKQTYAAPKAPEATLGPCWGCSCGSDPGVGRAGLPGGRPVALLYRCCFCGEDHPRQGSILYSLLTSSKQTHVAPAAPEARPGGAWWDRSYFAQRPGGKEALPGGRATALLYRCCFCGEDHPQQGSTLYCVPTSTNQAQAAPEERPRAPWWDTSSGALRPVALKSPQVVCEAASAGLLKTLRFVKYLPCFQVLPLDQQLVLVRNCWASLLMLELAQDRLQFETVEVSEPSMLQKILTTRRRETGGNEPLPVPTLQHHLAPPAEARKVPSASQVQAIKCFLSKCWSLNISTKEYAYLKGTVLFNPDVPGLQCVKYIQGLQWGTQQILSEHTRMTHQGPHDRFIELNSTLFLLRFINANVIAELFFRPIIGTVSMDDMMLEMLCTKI
Sequence of Broad substrate specificity ATP-binding cassette transporter ABCG2 (Q9UNQ0 whole entry): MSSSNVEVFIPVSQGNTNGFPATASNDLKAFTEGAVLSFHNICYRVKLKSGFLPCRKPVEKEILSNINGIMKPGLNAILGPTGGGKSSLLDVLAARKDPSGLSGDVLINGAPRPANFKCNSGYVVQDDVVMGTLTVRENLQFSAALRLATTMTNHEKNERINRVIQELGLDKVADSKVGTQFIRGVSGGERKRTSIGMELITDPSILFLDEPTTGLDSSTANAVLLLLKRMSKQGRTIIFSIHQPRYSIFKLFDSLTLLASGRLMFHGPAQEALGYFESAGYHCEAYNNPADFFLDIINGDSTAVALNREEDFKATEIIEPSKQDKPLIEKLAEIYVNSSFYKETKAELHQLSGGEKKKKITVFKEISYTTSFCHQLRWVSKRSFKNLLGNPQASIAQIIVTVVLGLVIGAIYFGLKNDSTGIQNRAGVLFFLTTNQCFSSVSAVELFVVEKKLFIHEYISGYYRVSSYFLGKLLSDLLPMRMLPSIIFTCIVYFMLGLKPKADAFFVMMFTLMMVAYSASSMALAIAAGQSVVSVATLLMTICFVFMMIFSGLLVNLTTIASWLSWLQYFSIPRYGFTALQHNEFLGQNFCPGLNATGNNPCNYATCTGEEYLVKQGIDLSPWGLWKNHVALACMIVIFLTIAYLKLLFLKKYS
Sequence of Beta-lactamase (Salmonella choleraesuis (strain SC-B67), UniProt Q5J463) (Q5J463 whole entry): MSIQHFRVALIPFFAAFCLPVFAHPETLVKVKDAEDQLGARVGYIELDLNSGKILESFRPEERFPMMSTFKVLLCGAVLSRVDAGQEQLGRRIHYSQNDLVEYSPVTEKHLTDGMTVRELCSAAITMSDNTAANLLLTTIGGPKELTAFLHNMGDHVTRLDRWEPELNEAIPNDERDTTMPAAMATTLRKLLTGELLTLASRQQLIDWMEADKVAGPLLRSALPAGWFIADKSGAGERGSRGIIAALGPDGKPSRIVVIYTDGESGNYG
Sequence of Long-chain-fatty-acid--AMP ligase FadD28 (P9WQ59 whole entry): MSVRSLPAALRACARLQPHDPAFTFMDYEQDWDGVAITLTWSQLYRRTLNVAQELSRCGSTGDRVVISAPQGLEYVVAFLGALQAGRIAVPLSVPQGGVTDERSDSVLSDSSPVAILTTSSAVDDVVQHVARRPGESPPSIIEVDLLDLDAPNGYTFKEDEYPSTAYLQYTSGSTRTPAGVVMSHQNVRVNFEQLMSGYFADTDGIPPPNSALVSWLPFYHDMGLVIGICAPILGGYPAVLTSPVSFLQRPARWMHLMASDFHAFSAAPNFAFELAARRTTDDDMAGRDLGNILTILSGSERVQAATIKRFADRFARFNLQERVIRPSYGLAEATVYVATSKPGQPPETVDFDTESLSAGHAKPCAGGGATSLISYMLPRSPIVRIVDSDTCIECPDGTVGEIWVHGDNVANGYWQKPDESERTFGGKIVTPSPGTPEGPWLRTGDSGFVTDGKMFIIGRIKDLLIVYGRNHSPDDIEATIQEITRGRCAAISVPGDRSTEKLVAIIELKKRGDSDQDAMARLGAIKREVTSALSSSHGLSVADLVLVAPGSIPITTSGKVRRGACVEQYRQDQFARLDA

## Oc1ccccc1N=Nc1ccccc1O
[1]
  EC50: 1.3 µM (active)
Cells [2]
  EC50: 2.06 µM (active)
BJ [3]
  EC50: 2.3 µM (inconclusive)
[4]
  EC50: 14.7 µM (active)
[5]
  EC50: > 120 µM (not active)
[6]
  EC50: 1.38 µM (active)
BJ [7]
  EC50: 0.626 µM (active)
[8]
  IC50: > 122 µM (inactive)
[9]
  EC50: 0.6 µM (active)
Cells [10]
  EC50: 12.7 µM (active)
Aminopeptidase N
  IC50: 22.1 µM (active)
[11]
  EC50: 1.15 µM (active)
BJ [12]
  EC50: 3.31 µM (inconclusive)
[13]
  EC50: > 160 µM (inactive)
[14]
  IC50: > 50 µM (not active)
[15]
  EC50: 0.13 µM (active)
[16]
  EC50: 12.1 µM (active)
Streptococcus
  EC50: 8.99 µM (active)

## Cc1c(C(=O)Nc2ccc(F)cc2)c2ccccn2c1CCc1ccncc1
[17]
  AC50: 20.4 µM (active)
[18]
  EC50: 6.84 µM (inactive)

## O=[N+]([O-])c1ccc(CNc2ccc(Cl)cc2)s1
[19]
  AC50: > 100 µM (inactive)

## COc1ccc(-c2oc3ccc(-c4ccc(OC)nc4)cc3c2C#CC2(O)CCCCC2)cc1
[20]
  IC50: 5.57 µM (active)
[21]
  CC50: > 40 µM (active)

## COc1ccc(/C=C2\CCCc3c2nc2ccccc2c3C(=O)O)cc1OC
[22]
  EC50: 9.28 µM (active)
Beta-lactamase [23]
  IC50: 11.2 µM (inactive)
[24]
  EC50: 8.26 µM (inconclusive)
Beta-lactamase [25]
  IC50: > 59.6 µM (inactive)

## Cc1ccc(CN2CCN(C(=O)c3ccco3)CC2)cc1
Mu-type opioid receptor
  EC50: 92.5 µM (inactive)
[26]
  EC50: 0.475 µM (active)

## CC(=Nc1ccccc1)C1=C(O)C(Cc2cccc(F)c2)NC1=O (configuration not stated)
Cells [27]
  IC50: > 67.5 µM (inactive)
[28]
  IC50: > 67.5 µM (inactive)

## C[C@H]1CN([C@@H](C)CO)S(=O)(=O)c2ccc(C#Cc3ccccn3)cc2O[C@@H]1CN(C)Cc1ccccc1
HEK293
  AC50: 24.2 µM (active)
[29]
  AC50: 24.2 µM (active)
HeLa
  AC50: > 52 µM (inactive)

## CC(C)NC(=O)Nc1ccc2c(c1)C(=O)N([C@@H](C)CO)C[C@@H](C)[C@@H](CN(C)S(=O)(=O)c1ccc(Cl)cc1)O2
[30]
  AC50: 69.6 µM (active)

## CN(C)C(=O)c1ccc(-c2ccc([C@H]3[C@H](CO)N4CCCCN(C(=O)C5CCC5)C[C@@H]34)cc2)cc1
[31]
  AC50: 0.072 µM (active)

## CCC(C)Oc1ccc(CC(=O)NO)cc1 (configuration not stated)
[32]
  IC50: 16.3 µM (inactive)
